According to ChEMBL document CHEMBL1177715, “Design and synthesis of androgen receptor full antagonists bearing a p-carborane cage: promising ligands for anti-androgen withdrawal syndrome” (J Med Chem, 2010):
Active and inactive are the calls of the source. The rule behind the calls is not given here.

Assays:
[1] = system: SC-3; assay: Growth inhibition of mouse SC3 cells after 3 days by WST-8 assay; assay type: functional, cell-based; conditions: SC-3, 72 h
[2] = system: LNCaP; assay: Growth stimulatory activity of human LNCAP cells; assay type: functional, cell-based

Row | SMILES | IC50 [1] [nM] | Activity [2]
1 | C[C@](O)(CS(=O)(=O)c1ccc(F)cc1)C(=O)Nc1ccc(C#N)c(C(F)(F)F)c1 [(R)-BICALUTAMIDE] | 140 | 
2 | CC(C)C(=O)Nc1ccc([N+](=O)[O-])c(C(F)(F)F)c1 [FLUTAMIDE] | 720 | Active
3 | CC(C)(O)C(=O)Nc1ccc([N+](=O)[O-])c(C(F)(F)F)c1 [HYDROXYFLUTAMIDE] | 240 | Active
